Assays:
M14 (Melanoma) [1] = assay: Bliss excess, mean over the matrix (fraction); higher = more synergy
In short: (§1)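 Cell lines in DMEM/F12 or RPMI with 10% FBS were plated in 1536-well plates, held 24 hours at 37°C, 5% CO2, then given two-drug dose matrices for 72 hours (DMSO typically 0.2%). Viability was read by CellTiter-Glo 2.0 luminescence and scaled as inhibition from 0 (vehicle wells) to 1 (blank wells). Combination Emax is the second-highest inhibition in the matrix; Bliss excess is observed combination effect minus expected EA + EB − EA·EB, EA and EB being single-agent effects.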

[2] = tested on: NCI-H835 (Other Solid Carcinomas); assay: as above
In short: as §1

[3] = tested on: ATN-1 (T-Lymphoblastic Leukemia); assay: combination Emax (second highest fraction inhibited in the dose matrix, 72 h); higher = more inhibition; extreme values may be limits of the assay
In short: as §1

C32 (Melanoma) = assay: as above
In short: as §1

[4] = tested on: Daudi (Burkitt's Lymphoma); assay: as above
In short: as §1

[5] = tested on: IGROV-1 (Ovarian Carcinoma); assay: as above
In short: as §1

[6] = tested on: KNS-62 (Squamous Cell Lung Carcinoma); assay: as above
In short: as §1

[7] = tested on: L-363 (Plasma Cell Myeloma); assay: as above
In short: as §1

M14 (Melanoma) [8] = assay: as above
In short: as §1

[9] = tested on: MDA-MB-175-VII (Breast Carcinoma); assay: as above
In short: as §1

[10] = tested on: NCI-H2009 (Lung Adenocarcinoma); assay: as above
In short: as §1

[11] = tested on: NCI-H2170 (Squamous Cell Lung Carcinoma); assay: as above
In short: as §1

NCI-H2452 (Mesothelioma) = assay: as above
In short: as §1

[12] = tested on: NCI-H835 (Other Solid Carcinomas); assay: as above
In short: as §1

[13] = tested on: NTERA-2-cl-D1 (Other Solid Carcinomas); assay: as above
In short: as §1

[14] = tested on: OCI-M1 (Acute Myeloid Leukemia); assay: as above
In short: as §1

[15] = tested on: RS4-11 (B-Lymphoblastic Leukemia); assay: as above
In short: as §1

[16] = tested on: SBC-5 (Small Cell Lung Carcinoma); assay: as above
In short: as §1

RVH-421 (Melanoma) [17] = assay: Bliss excess, mean over the matrix (fraction); higher = more synergy
In short: as §1

RVH-421 (Melanoma) [18] = assay: combination Emax (second highest fraction inhibited in the dose matrix, 72 h); higher = more inhibition; extreme values may be limits of the assay
In short: as §1
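Wherever Bliss excess, mean over the matrix is given: after 72 h of two-drug dosing.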

Structure (SMILES) | Bliss excess (M14 (Melanoma) [1]) | Bliss excess [2] | combination Emax [3] | combination Emax (C32 (Melanoma)) | combination Emax [4] | combination Emax [5] | combination Emax [6] | combination Emax [7] | combination Emax (M14 (Melanoma) [8]) | combination Emax [9] | combination Emax [10] | combination Emax [11] | combination Emax (NCI-H2452 (Mesothelioma)) | combination Emax [12] | combination Emax [13] | combination Emax [14] | combination Emax [15] | combination Emax [16] | Bliss excess (RVH-421 (Melanoma) [17]) | combination Emax (RVH-421 (Melanoma) [18])
CN(C)CCCOc1ccc(-c2ccc3ncc4c(c3c2)n(C2CCOCC2)c(=O)n4C)cn1 [AZD0156] + O=C(c1cc(Cc2n[nH]c(=O)c3ccccc23)ccc1F)N1CCN(C(=O)C2CC2)CC1 [Olaparib] (first compound max 3 µM, partner max 3 µM) | 0.0435 | 0.0053 | 0.393 | 0.164 | 0.48 | 0.574 | 0.367 | 0.356 | 0.365 | 0.198 | 0.436 | 0.437 | 0.38 | 0.224 | 0.162 | 0.534 | 0.497 | 0.194 |  | 
COc1cccc(OCCCN)c1-c1cc(Nc2cnc(C#N)cn2)n[nH]1 [Prexasertib] + CCc1c2c(nc3ccc(O)cc13)-c1cc3c(c(=O)n1C2)COC(=O)[C@]3(O)CC [SN-38] (first compound max 1 µM, 7x7, partner max 0.3 µM) |  | -0.0014 | 0.999 | 0.714 | 0.987 | 0.863 | 0.874 | 1 |  | 0.547 | 0.886 | 0.956 | 0.895 | 0.632 | 0.981 | 1 | 1 | 0.997 | -0.069 | 0.363
COc1cccc(OCCCN)c1-c1cc(Nc2cnc(C#N)cn2)n[nH]1 [Prexasertib] + CN(C)CCCOc1ccc(-c2ccc3ncc4c(c3c2)n(C2CCOCC2)c(=O)n4C)cn1 [AZD0156] (first compound max 1 µM, 7x7, partner max 1 µM) |  | 0.0571 | 1 | 0.774 | 0.965 | 0.788 | 0.659 | 0.992 |  | 0.327 | 0.462 | 0.868 | 0.644 | 0.366 | 0.227 | 0.951 | 1 | 0.886 | -0.0325 | 0.314
COc1cccc(OCCCN)c1-c1cc(Nc2cnc(C#N)cn2)n[nH]1 [Prexasertib] + C[C@@H]1COCCN1C2=NC(=NC(=C2)C3(CC3)[S@](=N)(=O)C)C4=C5C=CNC5=NC=C4 [AZD6738] (first compound max 1 µM, 7x7, partner max 10 µM) |  | 0.0548 | 1 | 0.735 | 0.939 | 0.754 | 0.555 | 1 |  | 0.398 | 0.522 | 0.847 | 0.672 | 0.372 | 0.596 | 0.956 | 1 | 0.938 | -0.0225 | 0.244
COc1cccc(OCCCN)c1-c1cc(Nc2cnc(C#N)cn2)n[nH]1 [Prexasertib] + Cc1cc2ncnn2cc1Nc1ncc2c(n1)n(C1CCOCC1)c(=O)n2C [AZD7648] (first compound max 1 µM, 7x7, partner max 10 µM) |  | -0.0346 | 1 | 0.753 | 0.947 | 0.76 | 0.601 | 0.985 |  | 0.367 | 0.45 | 0.88 | 0.714 | 0.36 | 0.345 | 0.948 | 1 | 0.901 | -0.0417 | 0.344
COc1cccc(OCCCN)c1-c1cc(Nc2cnc(C#N)cn2)n[nH]1 [Prexasertib] + O=C(c1cc(Cc2n[nH]c(=O)c3ccccc23)ccc1F)N1CCN(C(=O)C2CC2)CC1 [Olaparib] (first compound max 1 µM, 7x7, partner max 10 µM) |  | -0.045 | 1 | 0.769 | 0.945 | 0.705 | 0.576 | 1 |  | 0.376 | 0.574 | 0.787 | 0.735 | 0.256 | 0.742 | 0.981 | 1 | 0.914 | -0.0491 | 0.3
CCc1c2c(nc3ccc(O)cc13)-c1cc3c(c(=O)n1C2)COC(=O)[C@]3(O)CC [SN-38] + CN(C)CCCOc1ccc(-c2ccc3ncc4c(c3c2)n(C2CCOCC2)c(=O)n4C)cn1 [AZD0156] (first compound max 0.3 µM, 7x7, partner max 1 µM) |  | -0.0382 | 1 | 0.688 | 0.95 | 0.691 | 0.872 | 0.559 |  | 0.631 | 0.562 | 0.919 | 0.33 | 0.242 | 0.958 | 0.991 | 0.984 | 0.864 | -0.0576 | 0.191

— the supplement of paper PMC11061612
